≈ marks a conversion by molar mass, not a printed value.

Common to all, as to test: Bacterial growth minimal inhibitory concentration, microdilution
Holding throughout (type): cell-based
(In broth dilution the organism is exposed to a series of concentrations in liquid medium.)

Assay [1] relates to Moraxella catarrhalis A894. Conditions: quinolone-sensitive strain, cation-adjusted Mueller Hinton Broth. As to the method:
(§1) Minimal Inhibitory Concentrations (MICs; mg/l) were determined in cation-adjusted Mueller Hinton Broth by a microdilution method following the description given in “Methods for Dilution Antimicrobial Susceptibility Tests for Bacteria that Grow Aerobically”, Approved standard, 7th ed., Clinical and Laboratory Standards Institute (CLSI) Document M7-A7, Wayne, Pa., USA, 2006.
(§2) All Example compounds were tested against several Gram positive and especially Gram negative bacteria. […] Staphylococcus aureus A798, Klebsiella pneumoniae A651 and Acinetobacter baumanii T6474 are multiply-resistant strains (in particular quinolone-resistant), while Moraxella catarrhalis A894 and E. coli ATCC 25922 are quinolone-sensitive strains.

For another assay, the system named is E. coli ATCC 25922. Conditions: Escherichia coli, ATCC25922; quinolone-sensitive strain; cation-adjusted Mueller Hinton Broth. How it is done:
as §1, §2

Assay [2] has as its system Klebsiella pneumoniae A651. Conditions: multiply-resistant, quinolone-resistant strain, cation-adjusted Mueller Hinton Broth, read-out: MIC for K. pneumoniae A651. How it is done: as §1, §2
For assay [3], the system named is Staphylococcus aureus A798. The conditions noted are these: multiply-resistant, quinolone-resistant strain, cation-adjusted Mueller Hinton Broth, read-out: MIC for S. aureus A798. How it is done: as §1, §2
For assay [4], the system named is Acinetobacter baumanii T6474. The conditions noted are these: Acinetobacter baumannii, multiply-resistant, quinolone-resistant strain, cation-adjusted Mueller Hinton Broth. How it is done: as §1, §2

What is called MIC is the smallest concentration in the dilution series that meets the test's criterion for growth inhibition. As to `Cn1cc(C(=O)O)c(=O)c2cc(F)c(N3CCC(CCNCc4ccc5c(n4)NC(=O)CS5)CC3)nc21` [Example 17, 6-Fluoro-1-methyl-4-oxo-7-(4-{2-[(3-oxo-3,4-dihydro-2H-pyrido[3,2-b][1,4]thiazin-6-ylmethyl)-amino]-ethyl}-piperidin-1-yl)-1,4-dihydro-[1,8]naphthyridine-3-carboxylic acid], the minimal inhibitory concentration (MIC) in assay [1] stood at 0.031 µg/mL (≈ 0.0589 µM); against E. coli ATCC 25922 it was 0.125 µg/mL (≈ 0.237 µM); in assay [2], 0.5 µg/mL (≈ 0.949 µM); in assay [3], 0.5 µg/mL (≈ 0.949 µM); in assay [4] it was 0.125 µg/mL (≈ 0.237 µM).

(Values after US9540399B2, “Quinolone derivatives” (priority 2013, dated 2017).)
